Measured values from publication PMC7534383, “Structure-activity relationship of 7-aryl-2-anilino-pyrrolopyrimidines as Mer and Axl tyrosine kinase inhibitors” (Journal of Enzyme Inhibition and Medicinal Chemistry, 2020).
Like-named read-outs stand apart in the source and are kept apart here.

Columns and labels:
Format in all cases: biochemical
TYRO3 = biological target: T1, TYRO3 (Homo sapiens, UniProt Q06418); experiment: Kinase assay at Km ATP (Eurofins Discovery), Tyro3
T1 sequence (Q06418 41-890): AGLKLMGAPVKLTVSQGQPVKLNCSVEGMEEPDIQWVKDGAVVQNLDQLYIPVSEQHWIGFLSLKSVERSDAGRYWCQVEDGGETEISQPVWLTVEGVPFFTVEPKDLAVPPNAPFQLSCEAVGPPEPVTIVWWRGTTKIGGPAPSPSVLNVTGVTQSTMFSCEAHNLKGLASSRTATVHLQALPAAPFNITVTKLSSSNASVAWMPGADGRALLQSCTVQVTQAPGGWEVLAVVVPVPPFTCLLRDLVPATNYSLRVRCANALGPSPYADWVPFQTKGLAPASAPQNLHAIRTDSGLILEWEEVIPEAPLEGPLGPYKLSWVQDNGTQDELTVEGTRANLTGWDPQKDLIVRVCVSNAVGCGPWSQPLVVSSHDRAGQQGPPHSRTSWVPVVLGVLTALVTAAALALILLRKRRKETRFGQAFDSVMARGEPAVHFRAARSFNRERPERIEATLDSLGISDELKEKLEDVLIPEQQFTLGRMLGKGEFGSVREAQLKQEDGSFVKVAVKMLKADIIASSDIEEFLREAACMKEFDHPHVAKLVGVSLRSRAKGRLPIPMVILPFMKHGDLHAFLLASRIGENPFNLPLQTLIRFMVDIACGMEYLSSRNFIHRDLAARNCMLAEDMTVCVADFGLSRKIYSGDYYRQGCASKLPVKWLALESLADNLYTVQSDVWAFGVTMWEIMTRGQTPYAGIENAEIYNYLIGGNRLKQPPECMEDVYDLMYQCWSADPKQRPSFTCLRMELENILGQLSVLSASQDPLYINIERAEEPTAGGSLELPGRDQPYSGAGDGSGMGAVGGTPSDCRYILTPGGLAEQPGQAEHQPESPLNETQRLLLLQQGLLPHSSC
Description: (§1) All kinase assays were carried out at Km ATP by Eurofins Discovery's Kinase Screening and Profiling services (France).

AXL = biological target: T2, AXL (Homo sapiens, UniProt P30530); experiment: Kinase assay at Km ATP (Eurofins Discovery), Axl; conditions: for IC50: Km ATP
T2 sequence (P30530 26-894): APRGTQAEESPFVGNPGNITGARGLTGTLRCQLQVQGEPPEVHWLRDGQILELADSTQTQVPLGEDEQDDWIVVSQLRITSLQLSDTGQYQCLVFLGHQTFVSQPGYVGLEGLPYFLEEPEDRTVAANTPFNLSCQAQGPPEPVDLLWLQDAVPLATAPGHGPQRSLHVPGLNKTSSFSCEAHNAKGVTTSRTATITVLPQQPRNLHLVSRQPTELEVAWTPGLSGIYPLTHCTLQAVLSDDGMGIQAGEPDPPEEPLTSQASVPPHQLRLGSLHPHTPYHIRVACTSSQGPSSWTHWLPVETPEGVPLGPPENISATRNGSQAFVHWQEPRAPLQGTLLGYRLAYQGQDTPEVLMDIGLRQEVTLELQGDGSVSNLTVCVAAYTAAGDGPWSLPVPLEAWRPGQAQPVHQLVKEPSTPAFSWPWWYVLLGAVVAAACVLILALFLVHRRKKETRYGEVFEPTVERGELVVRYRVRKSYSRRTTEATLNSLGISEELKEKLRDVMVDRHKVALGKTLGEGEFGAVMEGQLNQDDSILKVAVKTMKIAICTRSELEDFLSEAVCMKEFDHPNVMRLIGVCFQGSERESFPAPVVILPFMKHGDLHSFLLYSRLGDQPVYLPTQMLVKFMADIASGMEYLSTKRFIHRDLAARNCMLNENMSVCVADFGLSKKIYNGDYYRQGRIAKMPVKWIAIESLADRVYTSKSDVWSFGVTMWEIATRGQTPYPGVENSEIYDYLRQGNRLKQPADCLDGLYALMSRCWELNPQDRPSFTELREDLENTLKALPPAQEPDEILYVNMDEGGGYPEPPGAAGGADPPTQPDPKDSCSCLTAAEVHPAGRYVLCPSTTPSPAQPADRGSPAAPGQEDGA
Description: as §1

MERTK = biological target: T3, MERTK (Homo sapiens, UniProt Q12866); experiment: Kinase assay at Km ATP (Eurofins Discovery), Mer; conditions: for IC50: Km ATP
T3 sequence (Q12866 21-999): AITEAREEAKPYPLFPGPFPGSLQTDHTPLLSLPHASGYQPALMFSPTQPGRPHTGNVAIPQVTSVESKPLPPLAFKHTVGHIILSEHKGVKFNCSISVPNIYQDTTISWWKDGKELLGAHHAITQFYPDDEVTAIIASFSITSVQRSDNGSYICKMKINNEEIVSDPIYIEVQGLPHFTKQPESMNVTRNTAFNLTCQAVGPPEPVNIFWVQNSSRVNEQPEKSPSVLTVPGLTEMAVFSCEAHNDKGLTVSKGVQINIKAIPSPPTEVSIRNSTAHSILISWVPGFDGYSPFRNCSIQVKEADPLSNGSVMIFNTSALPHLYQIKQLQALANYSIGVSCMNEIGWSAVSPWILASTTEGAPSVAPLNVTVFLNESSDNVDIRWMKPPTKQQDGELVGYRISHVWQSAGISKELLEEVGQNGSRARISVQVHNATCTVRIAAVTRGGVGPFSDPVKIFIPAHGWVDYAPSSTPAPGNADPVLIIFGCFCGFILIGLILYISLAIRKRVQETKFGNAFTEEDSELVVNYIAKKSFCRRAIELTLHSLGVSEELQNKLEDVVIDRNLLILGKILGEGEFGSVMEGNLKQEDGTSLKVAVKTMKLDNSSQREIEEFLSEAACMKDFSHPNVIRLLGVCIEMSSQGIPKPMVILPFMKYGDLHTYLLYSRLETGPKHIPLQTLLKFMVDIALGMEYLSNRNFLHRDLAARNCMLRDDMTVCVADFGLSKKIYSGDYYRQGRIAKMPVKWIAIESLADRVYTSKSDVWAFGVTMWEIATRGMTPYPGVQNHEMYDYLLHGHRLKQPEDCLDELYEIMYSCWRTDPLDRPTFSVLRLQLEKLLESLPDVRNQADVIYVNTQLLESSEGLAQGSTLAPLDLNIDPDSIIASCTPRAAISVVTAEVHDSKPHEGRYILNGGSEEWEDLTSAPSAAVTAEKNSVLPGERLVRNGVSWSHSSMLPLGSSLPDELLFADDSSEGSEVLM
Description: as §1

[1] = Table 2, read-out: IC50 (nM) MER
[2] = Table 3, read-out: IC50 (nM) MER
[3] = Table 1, mean values, read-out: IC50 (nM) MERTK

Row | SMILES | inhibition at 1 µM (TYRO3) [%] | IC50 (AXL; Table 2) [nM] | IC50 (MERTK; [1]) [nM] | also measured
1 | COc1ccc(-n2ccc3cnc(Nc4ccc(NC5CCN(C)CC5)c(OC)c4)nc32)cc1 [Compound 17, 2-Methoxy-N4-(7–(4-methoxyphenyl)-7H-pyrrolo[2,3-d]pyrimidin-2-yl)-N1-(1-methylpiperidin-4-yl)benzene-1,4-diamine] | 37 | 199 | 10 | 
2 | COc1ccc(-n2ccc3cnc(Nc4ccc(N5CCC(N(C)C)C5)c(OC)c4)nc32)cc1 (stereo not shown) [Compound 18, N-(4–(3-(Dimethylamino)pyrrolidin-1-yl)-3-methoxyphenyl)-7–(4-methoxyphenyl)-7H-pyrrolo[2,3-d]pyrimidin-2-amine] | 30 | 175 | 46 | 
3 | COc1cc(Nc2ncc3ccn(-c4ccc(OC(F)(F)F)cc4)c3n2)cc(N2CCC(N3CCCC3)CC2)c1 [Compound 33, N-(3-Methoxy-5–(4-(pyrrolidin-1-yl)piperidin-1-yl)phenyl)-7–(4-(trifluoromethoxy)phenyl)-7H-pyrrolo[2,3-d]pyrimidin-2-amine] | 23 |  |  | IC50 (AXL; Table 3): 57 nM; IC50 (MERTK; [2]): 9 nM
4 | COc1cc(Nc2ncc3ccn(-c4nccs4)c3n2)cc(N2CCC(N3CCCC3)CC2)c1 [Compound 35, N-(3-Methoxy-5–(4-(pyrrolidin-1-yl)piperidin-1-yl)phenyl)-7-(thiazol-2-yl)-7H-pyrrolo[2,3-d]pyrimidin-2-amine] | 16 |  |  | IC50 (AXL; Table 3): 247 nM; IC50 (MERTK; [2]): 64 nM
5 | COc1ccc(-n2ccc3cnc(Nc4cc(OC)cc(N5CCN(C)CC5)c4)nc32)cc1 [Compound 25, N-(3-Methoxy-5–(4-methylpiperazin-1-yl)phenyl)-7–(4-methoxyphenyl)-7H-pyrrolo[2,3-d]pyrimidin-2-amine] | 86 | 17 | 2 | 
6 | COc1ccc(-n2ccc3cnc(N4CCN(C)CC4)nc32)cc1 [Compound 5, 7–(4-Methoxyphenyl)-2–(4-methylpiperazin-1-yl)-7H-pyrrolo[2,3-d]pyrimidine] | 0 |  |  | IC50 (AXL; Table 1, mean values): > 1000 nM; IC50 (MERTK; [3]): > 1000 nM
7 | COc1cc(Nc2ncc3ccn([C@H]4CC[C@H](O)CC4)c3n2)cc(N2CCC(N3CCCC3)CC2)c1 [Compound 36, (1r,4r)-4–(2-((3-Methoxy-5–(4-(pyrrolidin-1-yl)piperidin-1-yl)phenyl)amino)-7H-pyrrolo[2,3-d]pyrimidin-7-yl)cyclohexanol] |  |  |  | %Inhibition at 1 µM TYRO3 (TYRO3; Table 3, 1 µM, Km ATP): 55%; IC50 (AXL; Table 3): 2020 nM; IC50 (MERTK; [2]): 484 nM
8 | COc1ccc(-n2ccc3cnc(Nc4cccc(-c5ccccc5)c4)nc32)cc1 [Compound 4, N-([1,1′-Biphenyl]-3-yl)-7–(4-methoxyphenyl)-7H-pyrrolo[2,3-d]pyrimidin-2-amine] | 12 |  |  | IC50 (AXL; Table 1, mean values): > 3000 nM; IC50 (MERTK; [3]): > 3000 nM
9 | COc1ccc(-n2ccc3cnc(Nc4cc(OC)cc(N5CCC6(CCCC6)CC5)c4)nc32)cc1 [Compound 31, N-(3-Methoxy-5–(8-azaspiro[4.5]decan-8-yl)phenyl)-7–(4-methoxyphenyl)-7H-pyrrolo[2,3-d]pyrimidin-2-amine] | 4 | > 3000 | > 3000 | 
10 | COc1ccc(-n2ccc3cnc(Nc4cc(OC)cc(N5CCCC(N6CCCC6)C5)c4)nc32)cc1 (stereo not shown) [Compound 29, N-(3-Methoxy-5–(3-(pyrrolidin-1-yl)piperidin-1-yl)phenyl)-7–(4-methoxyphenyl)-7H-pyrrolo[2,3-d]pyrimidin-2-amine] | 49 | 31 | 31 | 
11 | COc1ccc(-n2ccc3cnc(Nc4cc(CN5CCN(C)CC5)cc(OC)c4)nc32)cc1 [Compound 26, N-(3-Methoxy-5-((4-methylpiperazin-1-yl)methyl)phenyl)-7–(4-methoxyphenyl)-7H-pyrrolo[2,3-d]pyrimidin-2-amine] | 92 | 18 | 4 | 
12 | COc1ccc(-n2ccc3cnc(Nc4ccccc4)nc32)cc1 [Compound 3, 7–(4-Methoxyphenyl)-N-phenyl-7H-pyrrolo[2,3-d]pyrimidin-2-amine] | 44 |  |  | IC50 (AXL; Table 1, mean values): 751 nM; IC50 (MERTK; [3]): 95 nM
13 | COc1ccc(-n2ccc3cnc(Nc4cccc(OC)c4)nc32)cc1 [Compound 2, N-(3-Methoxyphenyl)-7–(4-methoxyphenyl)-7H-pyrrolo[2,3-d]pyrimidin-2-amine] | 38 |  |  | IC50 (AXL; Table 1, mean values): 1240 nM; IC50 (MERTK; [3]): 39 nM
14 | COc1ccc(-n2ccc3cnc(Nc4cc(OC)cc(N5CCC6(CCCO6)CC5)c4)nc32)cc1 [Compound 32, N-(3-Methoxy-5–(1-oxa-8-azaspiro[4.5]decan-8-yl)phenyl)-7–(4-methoxyphenyl)-7H-pyrrolo[2,3-d]pyrimidin-2-amine] | 0 | 288 |  | 
15 | COc1ccc(-n2ccc3cnc(Nc4ccc(N5CCN(C)CC5)c(OC)c4)nc32)cc1 [Compound 16, N-(3-Methoxy-4–(4-methylpiperazin-1-yl)phenyl)-7–(4-methoxyphenyl)-7H-pyrrolo[2,3-d]pyrimidin-2-amine] | 27 | 104 | 15 | fold decreased IC50 for Axl compared to 2 (AXL; relative to compound 2): 12 fold; fold decreased IC50 for Mer compared to 2 (MERTK; relative to compound 2): 2.6 fold
16 | COc1ccc(-n2ccc3cnc(Nc4cc(OC)cc(N5CCC(C)(N6CCCC6)CC5)c4)nc32)cc1 [Compound 28, N-(3-Methoxy-5–(4-methyl-4-(pyrrolidin-1-yl)piperidin-1-yl)phenyl)-7–(4-methoxyphenyl)-7H-pyrrolo[2,3-d]pyrimidin-2-amine] | 72 | 32 | 7 | 
